Test results: US11014942B2, “Preparation of a solid form of gadobenate dimeglumine” (BRACCO IMAGING S.P.A., priority 2014, dated 2021)

Key:
[1] = cited from earlier work; for Log P of antisolvent B: Table 1, CRC Handbook, values labelled * from U.S. National Library of Medicine; for log P (octanol/water partition coefficient): values listed in the description, CRC Handbook or US National Library of Medicine tables
[2] = solubility in solvent A (upper concentration limit); format: physicochemical
Description: Higher concentrations (of the gadobenate compound in the solvent A), for instance of at least 10% or, preferably, equal to or higher than 20%, are, however, preferred for the use of the invention, conveniently reducing organic solvent waste.

[3] = storage stability of the collected solid; format: physicochemical; details: when properly stored, under inert atmosphere
Description: Moreover, after its isolation, the collected solid product can conveniently be stored for long periods of time, for instance up to 2 years when properly stored, (i.e. under inert atmosphere) in a form that is ready for use in the preparation of the MultiHance® formulation, by simple dissolution of the solid compound in the proper amount of a pharmaceutically acceptable aqueous solution, such as, for instance, the sterile water for injections (WFI) or any another proper aqueous medium, according to procedures commonly employed in the art.

[4] = water dissolution of the solid form; format: physicochemical
Description: As formerly discussed, the complex compound collected with the proposed process is endowed with a good stability, favorable workability and, especially, optimal water solubility.

COCCOCCOC [diethylene glycol dimethyl ether]
Log P of antisolvent B [1]: −0.36*
log P (octanol/water partition coefficient) [1]: −0.36

CC(=O)CC(C)C [methyl isobutyl ketone]
Log P of antisolvent B [1]: 0.56
log P (octanol/water partition coefficient) [1]: 0.56

COCC(C)O (stereo not drawn) [1-methoxy-2-propanol]
Log P of antisolvent B [1]: −0.44
log P (octanol/water partition coefficient) [1]: −0.437

C1CCOC1 [tetrahydrofurane]
Log P of antisolvent B [1]: 0.46
log P (octanol/water partition coefficient) [1]: 0.46

O=C1CCCCC1 [cyclohexanone]
log P (octanol/water partition coefficient) [1]: 0.81

CCC(C)=O [2-butanone]
log P (octanol/water partition coefficient) [1]: 0.29

O=C([O-])CN(CCN(CC(=O)[O-])CC(=O)[O-])CCN(CC(=O)O)C(COCc1ccccc1)C(=O)O.[Gd+3] (stereo not drawn) [gadobenate dimeglumine, gadolinium complex of the 4-carboxy-5,8,11-tris(carboxymethyl)-1-phenyl-2-oxa-5,8,11-triazatridecan-13-oic acid]
upper concentration limit consistent with solubility in methanol ([2]; solvent A methanol): about 50%
upper concentration limit based on solubility in water or aqueous solvent ([2]; solvent A water or aqueous solvent such as saline solution): about 70%
storage time of the collected solid product [3]: up to 2 years
water required for complete dissolution ([4]; at 25-30° C.): less than 1 mL of water for 1 g of product
time to complete ready dissolution in water ([4]; less than 1 mL of water for 1 g of product at 25-30° C.): less than five minutes
